According to patent publication US10098350B2, “Fungicidal amides” (E. I. DU PONT DE NEMOURS AND COMPANY, priority 2013, dated 2018):

Key:
Format in all cases: in vivo
[1] = system: Septoria tritici; assay: Test C: wheat seedlings sprayed with test suspension, inoculated with Septoria tritici (wheat leaf blotch), visual disease rating
Description: (§1) General protocol for preparing test suspensions for Tests A-E: the test compounds were first dissolved in acetone in an amount equal to 3% of the final volume and then suspended at the desired concentration (in ppm) in acetone and purified water (50/50 mix by volume) containing 250 ppm of the surfactant Trem® 014 (polyhydric alcohol esters). The resulting test suspensions were then used in Tests A-E. Samples were applied to plants at either a 10 ppm (**), 40 ppm, 50 ppm (*) or 200 ppm (#) test solution to the point of run-off on the test plants with the equivalent of a rate of 40 g ai/ha, 160 g ai/ha, 200 g ai/ha, or 800 g ai/ha, respectively.
The test suspension was sprayed to the point of run-off on wheat seedlings. The following day the seedlings were inoculated with a spore suspension of Septoria tritici (the causal agent of wheat leaf blotch) and incubated in a saturated atmosphere at 24° C. for 48 h, and then moved to a growth chamber at 20° C. for 21 days, after which time visual disease ratings were made.
(§2) Results for Tests A-E are given in Table A. In the Table, a rating of 100 indicates 100% disease control and a rating of 0 indicates no disease control (relative to the controls). A dash (-) indicates no test results.

[2] = system: Stagonospora nodorum (also known as Septoria nodorum); assay: Test B: wheat seedlings sprayed with test suspension, inoculated with Stagonospora nodorum (wheat glume blotch), visual disease rating
Description: as §1
The test suspension was sprayed to the point of run-off on wheat seedlings. The following day the seedlings were inoculated with a spore suspension of Stagonospora nodorum (also known as Septoria nodorum; the causal agent of wheat glume blotch) and incubated in a saturated atmosphere at 20° C. for 48 h, and then moved to a growth chamber at 20° C. for 6 days, after which time visual disease ratings were made.
as §2

[3] = system: Erysiphe graminis f. sp. tritici; assay: Test E: wheat seedlings sprayed with test suspension, inoculated with Erysiphe graminis f. sp. tritici (wheat powdery mildew), visual disease rating
Description: as §1
The test suspension was sprayed to the point of run-off on wheat seedlings. The following day the seedlings were inoculated with a spore dust of Erysiphe graminis f. sp. tritici, (the causal agent of wheat powdery mildew) and incubated in a growth chamber at 20° C. for 7 or 8 days, after which time visual disease ratings were made.
as §2

[4] = system: Puccinia recondite f. sp. tritici; assay: Test D: wheat seedlings sprayed with test suspension, inoculated with Puccinia recondite f. sp. tritici (wheat leaf rust), visual disease rating
Description: as §1
The test suspension was sprayed to the point of run-off on wheat seedlings. The following day the seedlings were inoculated with a spore suspension of Puccinia recondite f. sp. tritici; (the causal agent of wheat leaf rust) and incubated in a saturated atmosphere at 20° C. for 24 h, and then moved to a growth chamber at 20° C. for 6 days, after which time visual disease ratings were made.
as §2

[5] = Cmpd. No. unmarked, 100 = 100% disease control, 0 = no control relative to controls
[6] = Cmpd. No. marked '*' (other test rate; meaning of mark not shown)
[7] = Cmpd. No. marked '**' (other test rate; meaning of mark not shown)

| Compound | Test C rating (% disease control) [1, 5] | Test B rating (% disease control) [2, 5] | Test E rating (% disease control) [3, 5] | Test D rating (% disease control) [4, 5] | further results |
| --- | --- | --- | --- | --- | --- |
| Cc1ncn(-c2ccc(CN(C(=O)c3c(C(F)F)nn(C)c3F)C3CC3)c(Cl)c2)n1 [compound 65] | 98% | 87% | 0% | 0% |  |
| Cn1nc(C(F)F)c(C(=O)N(Cc2ccc(-n3ccnn3)cc2Cl)C2CC2)c1F [compound 66] | 94% | 97% | 0% | 28% |  |
| Cn1nc(C(F)F)c(C(=O)N(Cc2ccc(-n3cnc(C(F)(F)F)n3)cc2Cl)C2CC2)c1F [compound 67] | 99% | 0% | 0% | 0% |  |
| Cn1nc(C(F)F)c(C(=O)N(Cc2ccc(-n3ccc(C(F)(F)F)n3)cc2F)C2CC2)c1F [compound 68] | 97% | 100% | 99% | 91% |  |
| Cn1cc(C(=O)N(Cc2c(F)cc(-n3ccc(C(F)(F)F)n3)cc2F)C2CC2)c(C(F)F)n1 [compound 71] | 99% | 92% | 91% | 0% |  |
| CC(c1ccc(-n2ccc(C(F)(F)F)n2)cc1Cl)N(C(=O)c1c(C(F)F)nn(C)c1F)C1CC1 (stereo not shown) [compound 72] | 100% | 100% | 99% | 99% |  |
| Cc1ccc(-n2ccc(C(F)(F)F)n2)cc1CN(C(=O)c1c(C(F)F)nn(C)c1F)C1CC1 [compound 84] |  |  |  |  | Test C rating (% disease control) [1, 6]: 98%; Test B rating (% disease control) [2, 6]: 100%; Test E rating (% disease control) [3, 6]: 94%; Test D rating (% disease control) [4, 6]: 89% |
| Cn1nc(C(F)F)c(C(=O)N(Cc2cc(-n3ccc(C(F)(F)F)n3)ccc2Cl)C2CC2)c1F [compound 86] |  |  |  |  | Test C rating (% disease control) [1, 6]: 99%; Test B rating (% disease control) [2, 6]: 100%; Test E rating (% disease control) [3, 6]: 95%; Test D rating (% disease control) [4, 6]: 68% |
| Cn1nc(C(F)F)c(C(=O)N(Cc2ccc(-n3ccc(C(F)(F)F)n3)c(Br)c2)C2CC2)c1F [compound 98] |  |  |  |  | Test C rating (% disease control) [1, 7]: 94%; Test B rating (% disease control) [2, 7]: 64%; Test E rating (% disease control) [3, 7]: 84%; Test D rating (% disease control) [4, 7]: 86% |
| Cn1nc(C(F)F)c(C(=O)N(Cc2ccc(-n3ccc(C(F)(F)F)n3)c(Cl)c2)C2CC2)c1F [compound 99] |  |  |  |  | Test C rating (% disease control) [1, 7]: 96%; Test B rating (% disease control) [2, 7]: 59%; Test E rating (% disease control) [3, 7]: 89%; Test D rating (% disease control) [4, 7]: 97% |
| Cn1cc(C(=O)N(Cc2ccnc(-n3ccc(C(F)(F)F)n3)c2Cl)C2CC2)c(C(F)F)n1 [compound 100] |  |  |  |  | Test C rating (% disease control) [1, 7]: 6%; Test B rating (% disease control) [2, 7]: 0%; Test E rating (% disease control) [3, 7]: 0%; Test D rating (% disease control) [4, 7]: 0% |
| Cc1cc(-n2ccc(C(F)(F)F)n2)ccc1CN(C(=O)c1c(C(F)F)nn(C)c1F)C1CC1 [compound 105] | 98% | 100% | 98% | 99% |  |
| Cn1nc(C(F)F)c(C(=O)N(Cc2ccc(-n3ccc(C(F)(F)F)n3)cc2Br)C2CC2)c1F [compound 106] | 96% | 100% | 97% | 99% |  |
| CC(c1cc(-n2ccc(C(F)(F)F)n2)ccc1Cl)N(C(=O)c1cn(C)nc1C(F)F)C1CC1 (stereo not shown) [compound 119] | 92% | 99% | 92% | 93% |  |
| CC(C)c1cc(-n2ccc(C(F)(F)F)n2)ccc1CN(C(=O)c1c(C(F)F)nn(C)c1F)C1CC1 [compound 121] | 95% | 100% | 99% | 100% |  |
| Cc1cc(-n2ccc(C(F)(F)F)n2)cnc1CN(C(=O)c1cn(C)nc1C(F)F)C1CC1 [compound 124] | 94% | 0% | 73% | 0% |  |
| Cn1nc(C(F)F)c(C(=O)N(Cc2c(Cl)cc(-n3cccn3)cc2Cl)C2CC2)c1F [compound 125] | 99% | 100% | 92% | 100% |  |
| CC(c1ccc(Cl)c(-n2ccc(C(F)(F)F)n2)c1)N(C(=O)c1cn(C)nc1C(F)F)C1CC1 (stereo not shown) [compound 126] | 92% | 92% | 48% | 68% |  |
| Cn1nc(C(F)F)c(C(=O)N(Cc2c(Cl)cc(-n3ccc(C(F)(F)F)n3)cc2Cl)C2CC2)c1F [compound 127] | 99% | 100% | 98% | 100% |  |
| CC(c1cc(-n2ccc(C(F)(F)F)n2)ccc1Br)N(C(=O)c1cn(C)nc1C(F)F)C1CC1 (stereo not shown) [compound 128] | 92% | 100% | 93% | 0% |  |
| CC(c1cc(-n2ccc(C(F)(F)F)n2)ccc1[N+](=O)[O-])N(C(=O)c1cn(C)nc1C(F)F)C1CC1 (stereo not shown) [compound 129] | 10% | 0% | 0% | 0% |  |
| CC(c1cc(-n2ccc(C(F)(F)F)n2)ccc1OC(F)(F)F)N(C(=O)c1cn(C)nc1C(F)F)C1CC1 (stereo not shown) [compound 130] | 28% | 93% | 72% | 68% |  |
| Cn1nc(C(F)F)c(C(=O)N(Cc2c(Cl)cc(-n3ccc(Br)n3)cc2Cl)C2CC2)c1F [compound 132] | 99% | 100% | 91% | 100% |  |
| CC(c1cc(-n2ccc(C(F)(F)F)n2)ccc1OC(F)(F)F)N(C(=O)c1c(C(F)F)nn(C)c1F)C1CC1 (stereo not shown) [compound 133] |  |  |  |  | Test C rating (% disease control) [1, 6]: 92%; Test B rating (% disease control) [2, 6]: 100%; Test E rating (% disease control) [3, 6]: 94%; Test D rating (% disease control) [4, 6]: 68% |
| CC(c1cc(-n2ccc(C(F)(F)F)n2)ccc1[N+](=O)[O-])N(C(=O)c1c(C(F)F)nn(C)c1F)C1CC1 (stereo not shown) [compound 134] |  |  |  |  | Test C rating (% disease control) [1, 6]: 43%; Test B rating (% disease control) [2, 6]: 94%; Test E rating (% disease control) [3, 6]: 0%; Test D rating (% disease control) [4, 6]: 68% |
